Results: US20130230459A1, “RADIOLABELLED mGluR2 PET LIGANDS” (Janssen Pharmaceuticals, Inc., priority 2010, published 2013)
“And” between values parts separate entries of the source, which are not always exact repeats. Identical values can stand only once.

Tests used:
[1] = Plasma radiometabolite analysis (30 min p.i.); format: in vivo, Wistar rats; settings: n = 2
Method: The metabolic stability of [^11C]B-4, [^11C]B-2, [^11C]B-7, and [^11C]B-10 was studied in healthy male Wistar rats by determination of the relative amounts of parent tracer and radiometabolites in plasma at 30 min p.i. of the tracer. After intravenous (i.v.) administration of about 74 MBq of the radioligand via tail vein under anesthesia (2.5% Isoflurane in O2 at 1 L/min flow rate), rats were sacrificed by decapitation at 30 min p.i. (n=2). Blood was collected in heparin containing tubes (4.5 mL LH PST tubes; BD vacutainer, BD, Franklin Lakes, N.J., USA) and stored on ice to stop the metabolism. Next, the blood was centrifuged for 5 min at 3000 rpm to separate the plasma. About 0.5 mL of plasma was spiked with about 10 μg of the authentic non-radioactive compound (1 mg/mL solution) and injected on to HPLC, which was connected to a Chromolith® performance column (C18, 3 mm×100 mm, Merck KGaA, Darmstadt, Germany). The mobile phase consisted of 0.05 M NaOAc buffer (pH 5.5) (solution A) and CH3CN (solvent B). The following method was used for the analysis: isocratic elution with 100% A for 4 min at a flow rate of 0.5 mL/min, linear gradient to 90% B by 9 min at a flow rate of 1 mL/min, and isocratic elution with mixture of 10% A and 90% B until 12 min. After passing through the UV detector (254 nm), the HPLC eluate was collected as 1 mL fractions (fraction collection each minute) using an automatic fraction collector and the radioactivity of these fractions was measured using an automated gamma counter.

[2] = Biodistribution studies of 11C tracers; format: in vivo, Wistar rats; settings: for SUV Blood / SUV Cerebellum / SUV Cerebrum total / SUV Cortex / SUV Hippocampus / SUV Striatum: normalized for body weight
Method: Biodistribution studies were carried out in healthy male Wistar rats (body weight 200-450 g) at 2 min, 30 min and 60 min post injection (p.i.) (n=3/time point). Rats were injected with about 11 MBq (2 min, 30 min analysis) or 22 MBq (60 min analysis) of the tracer via tail vein under anesthesia (2.5% isoflurane in O2 at 1 L/min flow rate) and sacrificed by decapitation at above specified time points. Blood and major organs were collected in tared tubes and weighed. The radioactivity in blood, organs and other body parts was measured using an automated gamma counter. The distribution of radioactivity in different parts of the body at different time points p.i. of the tracer was calculated and expressed as percentage of injected dose (% ID), and as percentage of injected dose per gram tissue (% ID/g) for the selected organs. % ID is calculated as cpm in organ/total cpm recovered. For calculation of total radioactivity in blood, blood mass was assumed to be 7% of the body mass.

SMILES: [11CH3]Oc1ccc(F)cc1C1CCN(c2ccn3c(CC4CC4)nnc3c2Cl)CC1 [[^11C]B-4, 8-chloro-3-(cyclopropylmethyl)-7-[4-[5-fluoro-2-[^11C]methoxyphenyl]-1-piperidinyl]-1,2,4-triazolo[4,3-a]pyridine]
- Intact tracer in rat plasma [1]: 41.0 ± 7.1%
- Polar metabolites in rat plasma [1]: 59.0 ± 7.1%
- % ID Blood ([2]; 2 min p.i.): 5.6 % ID and 5.6 ± 0.4 % ID
- % ID Carcass ([2]; 2 min p.i.): 42.0 ± 2.0 % ID
- % ID Cerebellum ([2]; 2 min p.i.): 0.10 % ID and 0.100 ± 0.000 % ID
- % ID Cerebrum total ([2]; 2 min p.i.): 0.45 % ID and 0.450 ± 0.029 % ID
- % ID Cortex ([2]; 2 min p.i.): 0.092 ± 0.019 % ID
- % ID Heart ([2]; 2 min p.i.): 4.1 ± 0.3 % ID
- % ID Hippocampus ([2]; 2 min p.i.): 0.010 ± 0.001 % ID
- % ID Intestines ([2]; 2 min p.i.): 7.3 ± 0.6 % ID
- % ID Kidneys ([2]; 2 min p.i.): 6.4 ± 0.6 % ID
- % ID Liver ([2]; 2 min p.i.): 29.9 ± 2.0 % ID
- % ID Lungs ([2]; 2 min p.i.): 2.9 ± 0.4 % ID
- % ID Rest of cerebrum ([2]; 2 min p.i.): 0.344 ± 0.047 % ID
- % ID Spleen + Pancreas ([2]; 2 min p.i.): 1.9 ± 0.2 % ID
- % ID Stomach ([2]; 2 min p.i.): 1.5 ± 0.3 % ID
- % ID Striatum ([2]; 2 min p.i.): 0.014 ± 0.001 % ID
- % ID Urine ([2]; 2 min p.i.): 0.0 ± 0.0 % ID
- Total brain uptake ([2]; 2 min p.i.): 0.58 % ID and 0.58 ± 0.0 % ID
- SUV Blood ([2]; 2 min p.i.): 0.80 ± 0.01
- SUV Cerebellum ([2]; 2 min p.i.): 1.46 and 1.46 ± 0.02
- SUV Cerebrum total ([2]; 2 min p.i.): 1.39 ± 0.01
- SUV Cortex ([2]; 2 min p.i.): 1.65 ± 0.02
- SUV Hippocampus ([2]; 2 min p.i.): 1.04 ± 0.01
- SUV Striatum ([2]; 2 min p.i.): 1.46 and 1.46 ± 0.02
- % ID Blood ([2]; 30 min p.i.): 2.8 ± 0.3 % ID
- % ID Carcass ([2]; 30 min p.i.): 64.3 ± 5.8 % ID
- % ID Cerebellum ([2]; 30 min p.i.): 0.191 ± 0.030 % ID
- % ID Cerebrum total ([2]; 30 min p.i.): 0.694 ± 0.117 % ID
- % ID Cortex ([2]; 30 min p.i.): 0.165 ± 0.081 % ID
- % ID Heart ([2]; 30 min p.i.): 2.5 ± 0.4 % ID
- % ID Hippocampus ([2]; 30 min p.i.): 0.026 ± 0.007 % ID
- % ID Intestines ([2]; 30 min p.i.): 8.3 ± 2.0 % ID
- % ID Kidneys ([2]; 30 min p.i.): 4.0 ± 0.7 % ID
- % ID Liver ([2]; 30 min p.i.): 14.2 ± 2.4 % ID
- % ID Lungs ([2]; 30 min p.i.): 0.7 ± 0.1 % ID
- % ID Rest of cerebrum ([2]; 30 min p.i.): 0.469 ± 0.047 % ID
- % ID Spleen + Pancreas ([2]; 30 min p.i.): 1.4 ± 0.2 % ID
- % ID Stomach ([2]; 30 min p.i.): 2.1 ± 0.3 % ID
- % ID Striatum ([2]; 30 min p.i.): 0.034 ± 0.005 % ID
- % ID Urine ([2]; 30 min p.i.): 0.3 ± 0.2 % ID
- Total brain uptake ([2]; 30 min p.i.): 0.93 ± 0.2 % ID
- SUV Blood ([2]; 30 min p.i.): 0.40 ± 0.01
- SUV Cerebellum ([2]; 30 min p.i.): 2.33 ± 0.04
- SUV Cerebrum total ([2]; 30 min p.i.): 1.66 ± 0.03
- SUV Cortex ([2]; 30 min p.i.): 1.87 ± 0.02
- SUV Hippocampus ([2]; 30 min p.i.): 1.57 ± 0.03
- SUV Striatum ([2]; 30 min p.i.): 2.31 ± 0.04
- % ID Blood ([2]; 60 min p.i.): 3.3 % ID and 3.3 ± 0.2 % ID
- % ID Carcass ([2]; 60 min p.i.): 62.8 ± 2.5 % ID
- % ID Cerebellum ([2]; 60 min p.i.): 0.144 ± 0.021 % ID
- % ID Cerebrum total ([2]; 60 min p.i.): 0.596 ± 0.128 % ID
- % ID Cortex ([2]; 60 min p.i.): 0.097 ± 0.039 % ID
- % ID Heart ([2]; 60 min p.i.): 1.3 ± 0.3 % ID
- % ID Hippocampus ([2]; 60 min p.i.): 0.021 ± 0.005 % ID
- % ID Intestines ([2]; 60 min p.i.): 11.1 ± 0.9 % ID
- % ID Kidneys ([2]; 60 min p.i.): 2.9 ± 0.4 % ID
- % ID Liver ([2]; 60 min p.i.): 15.4 ± 0.9 % ID
- % ID Lungs ([2]; 60 min p.i.): 0.5 ± 0.1 % ID
- % ID Rest of cerebrum ([2]; 60 min p.i.): 0.450 ± 0.086 % ID
- % ID Spleen + Pancreas ([2]; 60 min p.i.): 1.3 ± 0.2 % ID
- % ID Stomach ([2]; 60 min p.i.): 1.6 ± 0.3 % ID
- % ID Striatum ([2]; 60 min p.i.): 0.029 ± 0.009 % ID
- % ID Urine ([2]; 60 min p.i.): 0.6 ± 0.1 % ID
- % ID present in liver and intestines ([2]; 60 min p.i.): 26.5 % ID
- % ID present in the urinary system ([2]; 60 min p.i.): 3.5 % ID
- Total brain uptake ([2]; 60 min p.i.): 0.76 ± 0.1 % ID
- SUV Blood ([2]; 60 min p.i.): 0.50 ± 0.00
- SUV Cerebellum ([2]; 60 min p.i.): 1.68 ± 0.04
- SUV Cerebrum total ([2]; 60 min p.i.): 1.40 ± 0.03
- SUV Cortex ([2]; 60 min p.i.): 1.34 ± 0.02
- SUV Hippocampus ([2]; 60 min p.i.): 1.13 ± 0.02
- SUV Striatum ([2]; 60 min p.i.): 1.78 ± 0.04
- % ID present in the carcass ([2]; at all time points examined): ~56 % ID
